Test [1] addresses T1, K2P2.1 (TREK-1) (Mus musculus, UniProt P97438).
T1 construct: expressed in transfected cells; host or cells: Xenopus oocytes (cRNA injection, pGEMHE/pMO)
T1 sequence (P97438 1-411 isoform P97438-2): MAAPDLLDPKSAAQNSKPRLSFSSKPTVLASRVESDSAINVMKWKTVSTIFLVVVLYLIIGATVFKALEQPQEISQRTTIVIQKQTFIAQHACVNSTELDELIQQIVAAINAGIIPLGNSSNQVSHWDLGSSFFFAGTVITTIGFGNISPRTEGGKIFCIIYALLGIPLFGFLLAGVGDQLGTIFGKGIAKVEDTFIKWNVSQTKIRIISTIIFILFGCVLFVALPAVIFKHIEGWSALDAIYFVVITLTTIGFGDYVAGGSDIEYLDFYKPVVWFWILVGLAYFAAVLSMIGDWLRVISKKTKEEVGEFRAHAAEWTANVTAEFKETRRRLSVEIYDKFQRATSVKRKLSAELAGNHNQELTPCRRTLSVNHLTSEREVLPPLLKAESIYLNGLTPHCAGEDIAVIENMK
The experiment in a line: Excised membrane patches (outside-out, inside-out) from HEK-293T cells expressing K2P2.1 (TREK-1). The class given is cell-based, Murine. How it is done: FIG. 5 ML67-33 activates K2P2.1 (TREK-1) in excised membrane patches a, and b, exemplar I-V curves showing the effect of ML67-33 on K2P2.1 (TREK-1) in a, outside-out and b, inside-out excised patches from HEK-293T cells; currents were elicited by a voltage ramp from −100 to 50 mV from a holding potential of −40 mV. c, Exemplar channel responses to ML67-33 measured at 0 mV in the indicated configurations. Grey region indicates presence of 20 μM ML67-33. d, Times of half-maximal activation following ML67-33 application and recovery from activation (wash) following ML67-33 removal, measured in HEK-293T cells at 0 mV. Error bars: mean±s.e. n≧6, N≧2. ‘**’ indicates p≦0.01 and ‘N.S.’ indicates not significant (p≧0.05) as determined by t-test analysis.
(§1) Two-electrode voltage clamp recordings were performed from defolliculated stage V-VI Xenopus oocytes 24-48 hours after injection with 0.015-6.0 ng cRNA, using microelectrodes (0.3-3.0 MΩ) filled with 3M KCl. Data was acquired using the GeneClamp 500B (MDS Analytical Technologies) amplifier controlled by the pClamp software (Molecular Devices), and digitized at 1 kHz using Digidata 1332A (MDS Analytical Technologies). Recording solutions (mM): 2K (96 NaCl, 2 KCl, 1.8 CaCl2, 2 MgCl2), 90K (90 KCl, 8 NaCl, 1.8 CaCl2, 2 MgCl2), were buffered 5 mM HEPES pH 7.4. For K2P recordings, currents we elicited by a 1 second long ramp from −150 to +50 mV from a holding potential of −80 mV (2K), or −100 to +50 mV from a holding potential of 0 mV (90K). For KCNQ2 recordings, currents were elicited by a step protocol from −120 to 60 mV, in 20 mV increments, from a holding potential of −80 mV. Patch-clamp recordings from HEK-293T cells were performed using microelectrodes (2-3 MΩ) filled with 1M KCl. Data was acquired using the Axopatch 200B amplifier controlled by pClamp software, and digitized at 1 kHz using Digidata 1332A. Recording solutions (mM): intracellular (145 KCl, 5 EGTA, 3 MgCl2,) extracellular (150 NaCl, 5 KCl, 3 MgCl2, 1 CaCl2) were buffered with 5 mM HEPES pH 7.2 and 7.4, respectively. Currents were elicited by a 1 second long ramp from −150 to +50 mV from a holding potential of −80 mV. Data were fitted with a modified Hill's equation: I=Imin+(Imax−Imin)/(1+10^((Log EC50−Log [C])*H)), where Imax and Imin are maximal and minimal current values, respectively, EC50 is a half-maximal effective concentration of the compound, and H is the Hill coefficient.
To understand the mechanism of action of ML67-33, we examined how it affected K2P2.1 (TREK-1) expressed in two widely-used experimental systems, Xenopus oocytes and mammalian cells. […] Further, the effects of ML-67-33 were fast, occurring within seconds (half-maximal activation time, 4.1±0.5 s, mean±s.e., n=7, N=2) and were reversible upon washout (FIG. 4d). […] The times of half-maximal activation and return to baseline following compound washout (t1/2act and t1/2wash, respectively) in the outside-out configuration were indistinguishable from the same parameters measured in the whole-cell configuration (t1/2act:t1/2wash, mean±s.e. 4.1±0.5 s:3.9±0.5 s and 4.6±0.9 s:3.1±0.7 s for whole-cell and outside-out, respectively, FIGS. 5c and d). In stark contrast, both t1/2 values slowed substantially when the compound was applied to the inside-out configuration.

The target in test [2] is T2, K2P3.1 (TASK-1) (Mus musculus, UniProt O35111).
T2 construct: expressed in transfected cells; host or cells: Xenopus oocytes
T2 sequence (O35111 whole entry): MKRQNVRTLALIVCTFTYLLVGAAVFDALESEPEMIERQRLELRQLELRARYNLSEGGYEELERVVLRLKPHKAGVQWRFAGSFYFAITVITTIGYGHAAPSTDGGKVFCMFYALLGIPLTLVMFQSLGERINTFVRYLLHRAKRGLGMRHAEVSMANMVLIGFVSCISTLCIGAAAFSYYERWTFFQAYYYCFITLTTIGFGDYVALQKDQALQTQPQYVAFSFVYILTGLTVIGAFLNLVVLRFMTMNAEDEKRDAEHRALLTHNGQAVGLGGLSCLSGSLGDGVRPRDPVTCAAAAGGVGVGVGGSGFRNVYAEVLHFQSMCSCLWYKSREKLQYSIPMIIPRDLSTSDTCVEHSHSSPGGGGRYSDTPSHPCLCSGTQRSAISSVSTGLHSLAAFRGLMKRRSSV
The experiment in a line: Two-electrode voltage clamp, Xenopus oocytes expressing K2P3.1 (TASK-1). The class given is cell-based, Murine. How it is done:
FIG. 7 ML67-33 is a selective activator of heat- and mechanosensitive K2P channels. a-f, Exemplar I-V curves showing the effect of ML67-33 on a, K2P10.1 (TREK-2), b, K2P4.1 (TRAAK), c, K2P3.1 (TASK-1), d, K2P9.1 (TASK-3), e, K2P5.1 (TASK-2), and f, K2P18.1 (TRESK) measured in Xenopus oocytes in 2 mM [K^+]o pH 7.4. Currents were elicited by a voltage ramp from −150 to 50 mV, from a holding potential of −80 mV. g, Quantification of the effect of ML67-33 on the indicated channels. Data (mean±s.e., n≧6, N≧2) was normalized to basal channel activity and fitted to the Hill equation. […] Error bars indicate s.e., n≧6, N≧2.
Murine K2P channels were cloned into pGEMHE/pMO {Bagriantsev, 2011}, IRES-GFP (Invitrogen), or pYES2-MET25 (high copy 2μ, URA3) {Minor, 1999} for expression in oocytes, HEK-293T cells, and yeast, respectively, using standard molecular biology procedures, and verified by DNA sequencing.
as §1
There are six K2P subgroups {Noel, 2011} (FIG. 11). […]

Each structure is given as a SMILES string. Several values for one entry are separate records, joined by “and”; a condition that tells them apart may be missing. Equal entries are not always repeated.

Turning to `CC1(C)c2cc(Cl)ccc2N(CCc2nnn[nH]2)c2ccc(Cl)cc21` [ML67-33, 2,7-dichloro-9,9-dimethyl-10-[2-(1H-tetrazol-5-yl)ethyl]acridine], the t1/2act in test [1] (inside-out patch) was determined as 10.8 ± 1.3 s; in test [1] (outside-out patch), 4.6 ± 0.9 s. Besides, the t1/2wash came out at 22.0 ± 5.1 s in test [1] (inside-out patch) and 3.1 ± 0.7 s in test [1] (outside-out patch). The “effect on K2P2.1 (TREK-1) in excised patches (in words)” value in test [1] (outside-out and inside-out configurations) is given as “activated”. In test [2] (ML67-33 applied at 100 μM, ML67 concentration not stated), the “functional effect / activation (in words)” value was “little or no functional effects”. Further, in test [2] (at 100 μM (FIG. 7 legend), ** in Table 1), the “Emax (fold)” value was 1.1±0.0 fold and 1.1 ± 0.1** fold.

For the origin of these results see patent publication US9862684B2, “Modulation of K2P channels” (The Regents of the University of California, priority 2013, dated 2018).
